“And” between values parts separate entries of the source, which are not always exact repeats. Equal entries are not always repeated. Inconclusive results and toxic doses are left out. No stated cut-off is given here; in the data, active means T/C of 150% or more; inactive means T/C below 125%.
System: L1210 leukemia ip in BDF1 mice, survival T/C
Assay: NCI In Vivo Anticancer Drug Screen. Data for tumor model L1210 Leukemia (intraperitoneal) in B6D2F1 (BDF1) mice
Settings: endpoint: mean survival time, higher = longer survival
Method in brief: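 Read-out is survival time, reported as the treated-group measurement over the vehicle-control measurement.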

[1] = dose: 100.0 mg/kg/injection, schedule: Q04DX003 (ip), vehicle: Klucel (hydroxypropylcellulose) (HPC)
[2] = dose: 200.0 mg/kg/injection, schedule: Q04DX003 (ip), vehicle: Klucel (hydroxypropylcellulose) (HPC)
[3] = dose: 100.0 mg/kg/injection, schedule: Q01DX001 (ip), vehicle: saline
[4] = dose: 200.0 mg/kg/injection, schedule: Q01DX001 (ip), vehicle: saline
[5] = dose: 400.0 mg/kg/injection, schedule: Q01DX001 (ip), vehicle: saline
[6] = dose: 100.0 mg/kg/injection, schedule: Q01DX009 (ip), vehicle: saline with Tween-80
[7] = dose: 200.0 mg/kg/injection, schedule: Q01DX009 (ip), vehicle: saline with Tween-80
[8] = dose: 100.0 mg/kg/injection, schedule: Q01DX009 (ip), vehicle: Klucel (hydroxypropylcellulose) (HPC)
[9] = dose: 200.0 mg/kg/injection, schedule: Q01DX009 (ip), vehicle: Klucel (hydroxypropylcellulose) (HPC)
[10] = dose: 400.0 mg/kg/injection, schedule: Q01DX009 (ip), vehicle: Klucel (hydroxypropylcellulose) (HPC)
[11] = dose: 400.0 mg/kg/injection, schedule: Q04DX003 (ip), vehicle: Klucel (hydroxypropylcellulose) (HPC)

Measured: T/C

CC(=O)NNC(=O)c1ccccn1
inactive: dose: 4.0 mg/kg/injection, schedule: Q03HX024 (ip), vehicle: saline 109 % of control | dose: 8.0 mg/kg/injection, schedule: Q03HX008 (ip), vehicle: saline 96 % of control | dose: 8.0 mg/kg/injection, schedule: Q03HX016 (ip), vehicle: saline 111 % of control | dose: 8.0 mg/kg/injection, schedule: Q03HX024 (ip), vehicle: saline 105 % of control | dose: 16.0 mg/kg/injection, schedule: Q03HX008 (ip), vehicle: saline 105 % of control | dose: 16.0 mg/kg/injection, schedule: Q03HX016 (ip), vehicle: saline 98 % of control | dose: 16.0 mg/kg/injection, schedule: Q03HX024 (ip), vehicle: saline 104 % of control | dose: 32.0 mg/kg/injection, schedule: Q01DX009 (ip), vehicle: saline 104 % of control | dose: 32.0 mg/kg/injection, schedule: Q01DX009 (oral), vehicle: saline 102 % of control | dose: 32.0 mg/kg/injection, schedule: Q03HX008 (ip), vehicle: saline 103 % of control | dose: 32.0 mg/kg/injection, schedule: Q03HX016 (ip), vehicle: saline 104 % of control | dose: 32.0 mg/kg/injection, schedule: Q03HX024 (ip), vehicle: saline 108 % of control | dose: 32.0 mg/kg/injection, schedule: Q04DX003 (ip), vehicle: saline 108 % of control | dose: 64.0 mg/kg/injection, schedule: Q01DX001 (ip), vehicle: saline 102 % of control | dose: 64.0 mg/kg/injection, schedule: Q01DX001 (oral), vehicle: saline 106 % of control | dose: 64.0 mg/kg/injection, schedule: Q01DX009 (ip), vehicle: saline 108 % of control | dose: 64.0 mg/kg/injection, schedule: Q01DX009 (oral), vehicle: saline 114 % of control | dose: 64.0 mg/kg/injection, schedule: Q03HX008 (ip), vehicle: saline 109 % of control | dose: 64.0 mg/kg/injection, schedule: Q03HX016 (ip), vehicle: saline 111 % of control | dose: 64.0 mg/kg/injection, schedule: Q03HX024 (ip), vehicle: saline 117 % of control | dose: 64.0 mg/kg/injection, schedule: Q04DX003 (ip), vehicle: saline 100 % of control | dose: 64.0 mg/kg/injection, schedule: Q08DX002 (ip), vehicle: saline 104 % of control | dose: 75.0 mg/kg/injection, schedule: Q01DX Z (ip), vehicle: water 95 % of control and 105 % of control | dose: 100.0 mg/kg/injection, schedule: Q01DX Z (ip), vehicle: water 96 % of control and 103 % of control | dose: 128.0 mg/kg/injection, schedule: Q01DX001 (ip), vehicle: saline 100 % of control | dose: 128.0 mg/kg/injection, schedule: Q01DX001 (oral), vehicle: saline 108 % of control | dose: 128.0 mg/kg/injection, schedule: Q01DX009 (ip), vehicle: saline 124 % of control | dose: 128.0 mg/kg/injection, schedule: Q01DX009 (oral), vehicle: saline 119 % of control | dose: 128.0 mg/kg/injection, schedule: Q04DX003 (ip), vehicle: saline 103 % of control | dose: 128.0 mg/kg/injection, schedule: Q08DX002 (ip), vehicle: saline 103 % of control | dose: 150.0 mg/kg/injection, schedule: Q01DX Z (ip), vehicle: water 105 % of control and 89 % of control | dose: 256.0 mg/kg/injection, schedule: Q01DX001 (ip), vehicle: saline 109 % of control | dose: 256.0 mg/kg/injection, schedule: Q01DX001 (oral), vehicle: saline 108 % of control | dose: 256.0 mg/kg/injection, schedule: Q01DX009 (ip), vehicle: saline 103 % of control | dose: 256.0 mg/kg/injection, schedule: Q04DX003 (ip), vehicle: saline 105 % of control | dose: 256.0 mg/kg/injection, schedule: Q08DX002 (ip), vehicle: saline 109 % of control

O=[N+]([O-])c1ccc(C(Br)Br)cc1
inactive: [1] 93 % of control | [2] 93 % of control

CCOC1C(=O)c2ccccc2CCN1S(=O)(=O)c1ccc(C)cc1 (configuration not stated)
inactive: [3] 96 % of control | dose: 100.0 mg/kg/injection, schedule: Q01DX009 (ip), vehicle: saline 101 % of control | [4] 100 % of control | dose: 200.0 mg/kg/injection, schedule: Q01DX009 (ip), vehicle: saline 95 % of control | [5] 103 % of control | dose: 400.0 mg/kg/injection, schedule: Q01DX009 (ip), vehicle: saline 94 % of control

CCOC(=O)C1CCCCC1O (configuration not stated)
inactive: dose: 50.0 mg/kg/injection, schedule: Q01DX009 (ip), vehicle: saline with Tween-80 103 % of control | [6] 95 % of control | dose: 100.0 mg/kg/injection, schedule: Q04DX002 (ip), vehicle: saline with Tween-80 97 % of control | [7] 103 % of control | dose: 200.0 mg/kg/injection, schedule: Q04DX002 (ip), vehicle: saline with Tween-80 97 % of control | dose: 400.0 mg/kg/injection, schedule: Q04DX002 (ip), vehicle: saline with Tween-80 104 % of control

O=S1(=O)CC2(N3CCCC3)C3c4ccccc4C(c4ccccc43)C21 (configuration not stated)
inactive: dose: 25.0 mg/kg/injection, schedule: Q04DX002 (ip), vehicle: Klucel (hydroxypropylcellulose) (HPC) 102 % of control | dose: 50.0 mg/kg/injection, schedule: Q04DX002 (ip), vehicle: Klucel (hydroxypropylcellulose) (HPC) 102 % of control | dose: 100.0 mg/kg/injection, schedule: Q04DX002 (ip), vehicle: Klucel (hydroxypropylcellulose) (HPC) 117 % of control

OCCOc1cc(Cl)c(Cl)cc1Cl
inactive: dose: 25.0 mg/kg/injection, schedule: Q04DX003 (ip), vehicle: carboxymethylcellulose (CMC) 95 % of control | dose: 50.0 mg/kg/injection, schedule: Q01DX009 (ip), vehicle: carboxymethylcellulose (CMC) 93 % of control and 102 % of control | dose: 50.0 mg/kg/injection, schedule: Q04DX003 (ip), vehicle: carboxymethylcellulose (CMC) 101 % of control | dose: 100.0 mg/kg/injection, schedule: Q01DX009 (ip), vehicle: carboxymethylcellulose (CMC) 101 % of control and 103 % of control | [6] 103 % of control | dose: 100.0 mg/kg/injection, schedule: Q04DX002 (ip), vehicle: carboxymethylcellulose (CMC) 102 % of control and 103 % of control | dose: 100.0 mg/kg/injection, schedule: Q04DX003 (ip), vehicle: carboxymethylcellulose (CMC) 95 % of control | [7] 87 % of control | dose: 200.0 mg/kg/injection, schedule: Q04DX002 (ip), vehicle: carboxymethylcellulose (CMC) 103 % of control

COc1ccc(CCN2CSC(=S)N(CCc3ccc(OC)c(OC)c3)C2)cc1OC
inactive: [8] 97 % of control | [1] 97 % of control | [9] 100 % of control | [2] 97 % of control | [10] 94 % of control | [11] 95 % of control

CCCCCCCCCCCCCCCc1cc(=O)n(-c2cccc([N+](=O)[O-])c2)n1C
inactive: [1] 96 % of control | [2] 94 % of control | [11] 92 % of control

CC12C(=O)NC(=O)N3CCCN4C(=O)NC(=O)C1(C)C4C32 (configuration not stated)
inactive: dose: 75.0 mg/kg/injection, schedule: Q01DX001 (ip), vehicle: saline 94 % of control | dose: 150.0 mg/kg/injection, schedule: Q01DX001 (ip), vehicle: saline 97 % of control | dose: 300.0 mg/kg/injection, schedule: Q01DX001 (ip), vehicle: saline 100 % of control

NC(=O)c1ncn(C2OC(CO)C(O)C2O)c1N (configuration not stated)
inactive: dose: 50.0 mg/kg/injection, schedule: Q01DX001 (ip), vehicle: saline 111 % of control | [3] 111 % of control | [4] 114 % of control

O=C(O)CCC(=O)NCCNC(=O)CC(=O)O
inactive: [3] 100 % of control | [4] 105 % of control | [5] 100 % of control

O=C(O)C1CC(Br)C2CC1C(=O)O2 (configuration not stated)
inactive: dose: 100.0 mg/kg/injection, schedule: Q04DX003 (ip), vehicle: saline 91 % of control | dose: 200.0 mg/kg/injection, schedule: Q04DX003 (ip), vehicle: saline 105 % of control | dose: 400.0 mg/kg/injection, schedule: Q04DX003 (ip), vehicle: saline 97 % of control

COc1ccc(NC(=O)Nc2ccc(F)cc2)c(OC)c1
inactive: [8] 91 % of control | [1] 100 % of control | [9] 100 % of control | [2] 91 % of control | [10] 96 % of control | [11] 100 % of control

CN(C)CCOC(=O)c1ccc(C=O)cc1
inactive: dose: 100.0 mg/kg/injection, schedule: Q04DX002 (ip), vehicle: saline 105 % of control | dose: 200.0 mg/kg/injection, schedule: Q04DX002 (ip), vehicle: saline 110 % of control | dose: 400.0 mg/kg/injection, schedule: Q04DX002 (ip), vehicle: saline 90 % of control
